The target in experiment [1] is T1, Progesterone receptor (Homo sapiens, UniProt P06401).
T1 sequence (P06401 whole entry): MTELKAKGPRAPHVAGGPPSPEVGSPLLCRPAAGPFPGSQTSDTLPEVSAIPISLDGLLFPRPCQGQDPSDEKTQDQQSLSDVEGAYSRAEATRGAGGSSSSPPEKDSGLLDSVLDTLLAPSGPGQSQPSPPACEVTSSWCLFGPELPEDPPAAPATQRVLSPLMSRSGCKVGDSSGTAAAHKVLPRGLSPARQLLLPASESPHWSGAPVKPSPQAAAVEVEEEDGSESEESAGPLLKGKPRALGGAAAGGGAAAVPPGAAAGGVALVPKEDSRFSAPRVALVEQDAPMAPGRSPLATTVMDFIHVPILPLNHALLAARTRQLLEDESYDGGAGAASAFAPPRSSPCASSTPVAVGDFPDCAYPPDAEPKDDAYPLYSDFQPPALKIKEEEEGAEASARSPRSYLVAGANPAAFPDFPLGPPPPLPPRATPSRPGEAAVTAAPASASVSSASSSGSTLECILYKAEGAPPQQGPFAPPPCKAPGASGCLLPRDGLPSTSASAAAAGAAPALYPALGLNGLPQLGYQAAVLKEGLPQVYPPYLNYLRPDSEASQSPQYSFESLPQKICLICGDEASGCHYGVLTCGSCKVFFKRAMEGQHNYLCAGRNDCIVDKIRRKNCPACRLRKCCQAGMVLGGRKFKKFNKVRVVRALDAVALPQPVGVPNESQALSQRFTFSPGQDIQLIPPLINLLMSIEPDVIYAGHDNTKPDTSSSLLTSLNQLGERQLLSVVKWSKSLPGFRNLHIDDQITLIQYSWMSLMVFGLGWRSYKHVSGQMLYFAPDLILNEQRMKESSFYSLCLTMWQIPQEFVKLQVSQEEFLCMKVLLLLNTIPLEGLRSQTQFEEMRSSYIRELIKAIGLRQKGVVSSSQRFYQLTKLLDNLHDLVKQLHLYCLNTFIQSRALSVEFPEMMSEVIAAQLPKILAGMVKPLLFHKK
Description: Activity at progesterone receptor assessed as alkaline phosphatase activity in human T47D cells. The experiment is classed as cell-based.

Experiment [2] has as its target T1, Progesterone receptor. Description: Antagonist activity at progesterone receptor assessed as progesterone-induced alkaline phosphatase activity in human T47D cells. The experiment is classed as functional, cell-based.
Experiment [3] addresses T1, Progesterone receptor. The experiment can be described thus: Displacement of [3H]progesterone from progesterone receptor in human T47D cells. The experiment is classed as cell-based. Background: In a radioligand displacement assay an active substance lowers the binding of a labelled ligand.
Another experiment has as its target T2, Estrogen receptor (Homo sapiens, UniProt P03372).
T2 sequence (P03372 whole entry): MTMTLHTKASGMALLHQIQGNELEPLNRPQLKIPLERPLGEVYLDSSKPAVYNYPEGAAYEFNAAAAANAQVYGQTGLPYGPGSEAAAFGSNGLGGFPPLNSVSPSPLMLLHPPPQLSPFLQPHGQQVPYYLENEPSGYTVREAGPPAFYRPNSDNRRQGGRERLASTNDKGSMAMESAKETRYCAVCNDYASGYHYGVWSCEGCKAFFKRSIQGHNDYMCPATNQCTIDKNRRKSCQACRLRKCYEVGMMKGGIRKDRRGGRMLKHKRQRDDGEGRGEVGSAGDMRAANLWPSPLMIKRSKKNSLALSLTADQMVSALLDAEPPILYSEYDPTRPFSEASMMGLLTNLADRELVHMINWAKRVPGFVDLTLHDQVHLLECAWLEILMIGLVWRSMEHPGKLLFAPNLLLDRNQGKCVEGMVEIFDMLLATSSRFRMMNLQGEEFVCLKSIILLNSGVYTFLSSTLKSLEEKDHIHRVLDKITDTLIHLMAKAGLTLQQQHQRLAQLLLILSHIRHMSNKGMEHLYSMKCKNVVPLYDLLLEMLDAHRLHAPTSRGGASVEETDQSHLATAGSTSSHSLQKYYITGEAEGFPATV
The experiment can be described thus: Antagonist activity at estrogen receptor by Gal4-DNA binding domain-hormone receptor LBD one-hybrid assay.

A further experiment concerns the target T3, Androgen receptor (Homo sapiens, UniProt P10275).
T3 sequence (P10275 whole entry): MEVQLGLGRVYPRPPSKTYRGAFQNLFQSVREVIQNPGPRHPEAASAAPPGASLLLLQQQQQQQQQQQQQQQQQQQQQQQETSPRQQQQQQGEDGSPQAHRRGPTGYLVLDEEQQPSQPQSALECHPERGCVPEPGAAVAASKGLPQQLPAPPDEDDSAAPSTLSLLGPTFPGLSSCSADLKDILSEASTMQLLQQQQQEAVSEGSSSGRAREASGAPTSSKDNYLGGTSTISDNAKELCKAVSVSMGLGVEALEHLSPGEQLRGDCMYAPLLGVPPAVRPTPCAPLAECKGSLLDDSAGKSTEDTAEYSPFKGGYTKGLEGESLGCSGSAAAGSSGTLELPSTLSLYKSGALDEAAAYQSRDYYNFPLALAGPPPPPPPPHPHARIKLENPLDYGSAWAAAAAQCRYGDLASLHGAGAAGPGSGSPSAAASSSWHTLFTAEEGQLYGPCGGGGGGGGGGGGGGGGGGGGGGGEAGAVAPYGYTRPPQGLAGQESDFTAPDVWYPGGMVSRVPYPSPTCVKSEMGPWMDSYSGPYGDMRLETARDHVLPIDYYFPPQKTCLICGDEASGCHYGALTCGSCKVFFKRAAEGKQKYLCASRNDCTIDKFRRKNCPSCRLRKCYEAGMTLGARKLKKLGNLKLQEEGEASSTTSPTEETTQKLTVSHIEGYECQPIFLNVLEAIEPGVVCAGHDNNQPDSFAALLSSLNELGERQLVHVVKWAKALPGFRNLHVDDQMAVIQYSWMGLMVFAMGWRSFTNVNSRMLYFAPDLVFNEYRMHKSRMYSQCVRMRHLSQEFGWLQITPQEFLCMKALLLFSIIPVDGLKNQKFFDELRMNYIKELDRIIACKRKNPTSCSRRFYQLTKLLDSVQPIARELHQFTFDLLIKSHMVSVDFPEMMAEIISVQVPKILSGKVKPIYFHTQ
The experiment can be described thus: Antagonist activity at androgen receptor by Gal4-DNA binding domain-hormone receptor LBD one-hybrid assay.

A further experiment concerns the target T4, Glucocorticoid receptor (Homo sapiens, UniProt P04150).
T4 sequence (P04150 whole entry): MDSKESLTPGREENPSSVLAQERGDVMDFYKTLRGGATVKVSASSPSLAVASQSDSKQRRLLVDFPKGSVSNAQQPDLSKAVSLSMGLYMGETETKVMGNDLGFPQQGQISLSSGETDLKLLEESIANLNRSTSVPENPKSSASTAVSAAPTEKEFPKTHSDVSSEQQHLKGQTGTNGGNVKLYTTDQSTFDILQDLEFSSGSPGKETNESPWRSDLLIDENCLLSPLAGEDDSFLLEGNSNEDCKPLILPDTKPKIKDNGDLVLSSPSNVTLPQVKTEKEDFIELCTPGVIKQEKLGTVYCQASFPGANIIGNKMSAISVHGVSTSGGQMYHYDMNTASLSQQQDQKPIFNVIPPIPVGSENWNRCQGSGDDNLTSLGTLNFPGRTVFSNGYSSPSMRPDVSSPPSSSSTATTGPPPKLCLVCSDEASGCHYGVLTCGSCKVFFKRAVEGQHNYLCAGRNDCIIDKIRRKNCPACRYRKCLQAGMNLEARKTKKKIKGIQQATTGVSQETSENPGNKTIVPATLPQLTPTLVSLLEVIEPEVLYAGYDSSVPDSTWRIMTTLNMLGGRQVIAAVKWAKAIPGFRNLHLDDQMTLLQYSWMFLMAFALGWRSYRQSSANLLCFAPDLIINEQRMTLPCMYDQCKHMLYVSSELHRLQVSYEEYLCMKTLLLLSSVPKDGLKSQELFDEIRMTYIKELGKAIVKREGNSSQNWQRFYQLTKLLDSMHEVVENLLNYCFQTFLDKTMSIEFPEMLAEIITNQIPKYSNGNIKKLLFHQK
Description: Antagonist activity at glucocorticoid receptor by Gal4-DNA binding domain-hormone receptor LBD one-hybrid assay.

In experiment [4] the target is T5, Mineralocorticoid receptor (Homo sapiens, UniProt P08235).
T5 sequence (P08235 whole entry): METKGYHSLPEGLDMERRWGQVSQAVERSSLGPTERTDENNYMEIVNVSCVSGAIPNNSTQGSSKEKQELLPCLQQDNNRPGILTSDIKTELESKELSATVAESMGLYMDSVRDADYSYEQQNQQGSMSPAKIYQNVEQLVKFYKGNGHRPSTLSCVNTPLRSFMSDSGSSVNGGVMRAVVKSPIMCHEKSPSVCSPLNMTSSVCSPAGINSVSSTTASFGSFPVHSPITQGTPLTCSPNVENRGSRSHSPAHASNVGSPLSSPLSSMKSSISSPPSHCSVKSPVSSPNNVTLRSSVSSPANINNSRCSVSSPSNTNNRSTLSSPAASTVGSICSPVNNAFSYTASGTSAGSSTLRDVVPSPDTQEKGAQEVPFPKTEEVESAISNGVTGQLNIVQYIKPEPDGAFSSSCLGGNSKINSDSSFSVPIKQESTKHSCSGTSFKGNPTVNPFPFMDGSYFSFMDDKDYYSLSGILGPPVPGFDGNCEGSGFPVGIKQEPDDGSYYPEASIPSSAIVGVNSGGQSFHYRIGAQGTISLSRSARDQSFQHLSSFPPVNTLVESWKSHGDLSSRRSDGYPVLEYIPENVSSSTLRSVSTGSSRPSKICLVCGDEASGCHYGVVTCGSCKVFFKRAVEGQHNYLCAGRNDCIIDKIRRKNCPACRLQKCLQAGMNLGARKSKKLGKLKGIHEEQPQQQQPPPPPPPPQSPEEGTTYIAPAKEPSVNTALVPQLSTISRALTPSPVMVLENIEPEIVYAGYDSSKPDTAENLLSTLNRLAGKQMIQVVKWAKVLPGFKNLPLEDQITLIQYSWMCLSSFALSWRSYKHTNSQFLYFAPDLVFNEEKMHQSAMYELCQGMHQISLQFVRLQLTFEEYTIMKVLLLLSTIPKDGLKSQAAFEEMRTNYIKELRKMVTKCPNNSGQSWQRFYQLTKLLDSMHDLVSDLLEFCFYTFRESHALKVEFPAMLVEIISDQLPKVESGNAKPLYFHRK
Description: Antagonist activity at mineralocorticoid receptor by Gal4-DNA binding domain-hormone receptor LBD one-hybrid assay.

The structures appear in SMILES notation.

Usually EC50 stands for the concentration that produces a half-maximal response. Regarding `CC1OCC(=O)Nc2ccc(-c3ccc(C#N)[nH]3)cc21` (stereo not given), the EC50 on Progesterone receptor [1] turned out to be 246 nM. Broadly, the IC50 is the midpoint of a concentration-inhibition curve. As for `Cn1c(C#N)ccc1-c1ccc2c(c1)C(c1cccc(Cl)c1)(c1cccc(Cl)c1)OCC(=O)N2`, the IC50 at Progesterone receptor [2] is 175 nM. On to `CCC1(c2cccs2)OCC(=O)N(C)c2ccc(-c3ccc(C#N)n3C)cc21` (stereo not given), for which the IC50 on Progesterone receptor [2] worked out at 120 nM. Turning to `CN1C(=O)COC(c2ccccc2)(c2ccccc2)c2cc(-c3ccc(C#N)n3C)ccc21`, the IC50 on Progesterone receptor [2] is 500 nM. As to `Cn1c(C#N)ccc1-c1ccc2c(c1)C(c1ccco1)(c1ccco1)OCC(=O)N2`, the IC50 at Progesterone receptor [2] is 6.6 nM; at Progesterone receptor [3], 28.4 nM; at Estrogen receptor, > 10 µM; at Androgen receptor it was 740 nM; on Glucocorticoid receptor, > 3000 nM; in experiment [4], 2800 nM. `Cn1c(C#N)ccc1-c1ccc2c(c1)C(c1ccc(Cl)s1)(c1ccc(Cl)s1)OCC(=O)N2`: at Progesterone receptor [2], the IC50 was 197 nM. As for `N#Cc1ccc(-c2ccc3c(c2)C2(CCCCC2)OCC(=O)N3)[nH]1`, at Progesterone receptor [1], the EC50 came to 30.5 nM. With `Cn1c(C#N)ccc1-c1ccc2c(c1)C(C)(c1ccco1)OCC(=O)N2` (stereo not given), on Progesterone receptor [1], the EC50 was found to be 0.4 nM. Further, the IC50 at Estrogen receptor was > 10 µM; on Androgen receptor, 215 nM; on Glucocorticoid receptor it was 120 nM; in experiment [4], 155 nM. For `CCCC1(c2cccs2)OCC(=O)Nc2ccc(-c3ccc(C#N)n3C)cc21` (stereo not given), the IC50 at Progesterone receptor [2] came to 56.6 nM.

For the compound `C[C@@]1(c2ccsc2)OCC(=O)Nc2ccc(-c3ccc(C#N)[nH]3)cc21`, the EC50 at Progesterone receptor [1] turned out to be 0.5 nM. The same measure, in the same setting: under `CC1OCC(=O)Nc2ccc(-c3ccc(C#N)n3C)cc21` (stereo not given) stands 138 nM.

On to `CC1(C)OCC(=O)Nc2ccc(-c3ccc(C#N)[nH]3)cc21`, for which the EC50 at Progesterone receptor [1] stood at 3.3 nM. Further, on Progesterone receptor [3], the IC50 was 10.7 nM. Taken in the same sequence, the figures for `Cn1c(C#N)ccc1-c1ccc2c(c1)C(C)(c1cccs1)OCC(=O)N2` (stereo not given) were 0.8 nM and 2.4 nM.

As for `CC1(c2ccsc2)OCC(=O)Nc2ccc(-c3ccc(C#N)[nH]3)cc21` (stereo not given), the EC50 at Progesterone receptor [1] is 1.1 nM. For `C[C@]1(c2ccsc2)OCC(=O)Nc2ccc(-c3ccc(C#N)[nH]3)cc21`, the EC50 on Progesterone receptor [1] stood at 110 nM. On the same count and under the same terms, to `CN1C(=O)COC(C)(c2cccs2)c2cc(-c3ccc(C#N)n3C)ccc21` (stereo not given) belongs 37.5 nM. Consider `Cn1c(C#N)ccc1-c1ccc2c(c1)C(c1cccs1)(c1cccs1)OCC(=O)N2`, for which the IC50 is 60 nM at Progesterone receptor [3]; > 10 µM at Estrogen receptor; 775 nM on Androgen receptor; > 3000 nM at Glucocorticoid receptor; 2300 nM in experiment [4]. As to `Cn1c(C#N)ccc1-c1ccc2c(c1)C(c1ccccc1)(c1ccccc1)OCC(=O)N2`, the IC50 at Progesterone receptor [2] was found to be 14.3 nM; on Progesterone receptor [3] it was 36 nM. As for `CCC1(c2cccs2)OCC(=O)Nc2ccc(-c3ccc(C#N)n3C)cc21` (stereo not given), the IC50 at Progesterone receptor [3] is 75 nM. On to `Cn1c(C#N)ccc1-c1ccc2c(c1)C(C)(C)OCC(=O)N2`, for which the EC50 on Progesterone receptor [1] turned out to be 3.3 nM.

As to `Cn1c(C#N)ccc1-c1ccc2c(c1)C(C)(c1ccsc1)OCC(=O)N2` (stereo not given), the EC50 on Progesterone receptor [1] is 0.8 nM. Moreover, the IC50 at Progesterone receptor [3] was 3.4 nM; at Estrogen receptor, > 10 µM; on Androgen receptor, 325 nM; at Glucocorticoid receptor it was 127 nM; in experiment [4], 440 nM. Turning to `CC1(c2cccs2)OCC(=O)Nc2ccc(-c3ccc(C#N)[nH]3)cc21` (stereo not given), the EC50 on Progesterone receptor [1] worked out at 0.7 nM. In addition, the concentration for half-maximal inhibition (IC50) on Progesterone receptor [3] is 3.8 nM. `CC(C)C1(c2cccs2)OCC(=O)Nc2ccc(-c3ccc(C#N)n3C)cc21` (stereo not given): at Progesterone receptor [2], the IC50 was 36.5 nM.
